This passage reports MIC results from DBAASP.

Among the test systems are Shigella dysenteriae; Bacillus megaterium; Klebsiella pneumoniae; Escherichia coli ML-35p; Staphylococcus aureus; Escherichia coli; Escherichia coli UB1005.
Holding throughout (assay): ≥ marks a high value that may be exact or a test limit, other limits are often not marked, values filed in µg/mL are converted to µM
For test [1], the system named is Staphylococcus aureus ATCC 25923.
Test [2] concerns Candida albicans ATCC 10231.
Test [3] relates to Enterococcus faecalis PCM 2673.
The test system of test [4] is Pseudomonas aeruginosa ATCC 9027.
In test [5] the test system is Escherichia coli ATCC 25922.
The subject of test [6] is Staphylococcus aureus ATCC 2592.
For test [7], the system named is Pseudomonas aeruginosa CMCCB 10104.
The test system of test [8] is Candida albicans ATCC 2002.
The test system of test [9] is Staphylococcus epidermidis ATCC 12228.
Test [10] relates to Candida albicans ATCC 24433.
In test [11] the test system is Listeria monocytogenes EGD.
Test [12] deals with Pseudomonas aeruginosa ATCC 27853.
For test [13], the system named is Trichophyton rubrum ATCC 28189.
Test [14] has as its system Candida albicans ATCC 90028.
The subject of test [15] is Staphylococcus aureus RN4220.
Test [16] has as its system Candida parapsilosis ATCC 22019.
For test [17], the system named is Bacillus subtilis CMCC 63501.
Test [18] relates to Staphylococcus aureus ATCC 29213.
Test [19] relates to Salmonella enterica subsp. enterica serovar Pullorum C79-13.
For test [20], the system named is Enterococcus faecalis ATCC 29212.
For test [21], the system named is Salmonella enterica subsp. enterica serovar Typhimurium ATCC 14028.

Molecules are shown by their SMILES. ≈ marks a conversion by molar mass, not a printed value.

For the compound `CC[C@H](C)[C@H](NC(=O)[C@H](CCCCN)NC(=O)[C@H](CCCCN)NC(=O)[C@@H](NC(=O)[C@@H](NC(=O)[C@H](CC(=O)O)NC(=O)[C@H](Cc1ccccc1)NC(=O)[C@H](CC(C)C)NC(=O)[C@H](C)N)[C@@H](C)CC)[C@@H](C)CC)C(=O)N[C@@H](C)C(=O)N[C@@H](CCC(=O)O)C(=O)N[C@@H](CO)C(=O)N[C@@H](Cc1ccccc1)C(N)=O` [ALFDIIKKIAESF], the MIC in [1] is 343 µM (≈ 512 µg/mL); in test [2], 85.6 µM (≈ 128 µg/mL); in test [3] it was at least 85.6 µM; in [4], 343 µM (≈ 512 µg/mL); in test [5], 85.6 µM (≈ 128 µg/mL).
Regarding `CC[C@H](C)[C@H](N=C(O)CN)C(O)=NCC(O)=N[C@H](C(O)=N[C@@H](CCCCN)C(O)=N[C@H](C(O)=N[C@@H](CC(C)C)C(O)=NCC(O)=NCC(O)=N[C@H](C(O)=N[C@@H](CCCCN)C(O)=N[C@H](C(O)=N[C@@H](C)C(O)=N[C@@H](CC(C)C)C(O)=N[C@@H](CCCCN)C(O)=NCC(O)=N[C@@H](C)C(O)=N[C@@H](CC(C)C)C(O)=N[C@@H](CCCCN)C(O)=N[C@@H](CCC(=O)O)C(O)=N[C@@H](CC(C)C)C(O)=N[C@@H](C)C(O)=N[C@@H](CO)C(O)=N[C@H](C(O)=N[C@@H](Cc1ccc(O)cc1)C(O)=N[C@@H](C)C(O)=N[C@@H](CC(=N)O)C(=N)O)[C@@H](C)O)[C@@H](C)O)C(C)C)[C@@H](C)CC)[C@@H](C)O` [GIGTKILGGVKTALKGALKELASTYAN], the minimum inhibitory concentration (MIC) against Shigella dysenteriae was determined as 1.01 µM (≈ 2.7 µg/mL); in the test on Bacillus megaterium, 7.29 µM (≈ 19.5 µg/mL); against Klebsiella pneumoniae, 3.36 µM (≈ 9 µg/mL); in test [6], 7.29 µM (≈ 19.5 µg/mL); in test [7] it was 7.29 µM (≈ 19.5 µg/mL); in [5] it was 7.29 µM (≈ 19.5 µg/mL). Also, the MIC in test [8] was found to be 1.12 µM (≈ 3 µg/mL).
With `CC[C@H](C)[C@H](NC(=O)[C@H](C)NC(=O)[C@H](CCCCN)NC(=O)[C@@H](NC(=O)[C@@H](NC(=O)[C@H](CC(=O)O)NC(=O)[C@H](Cc1ccccc1)NC(=O)[C@H](CC(C)C)NC(=O)CN)[C@@H](C)CC)[C@@H](C)CC)C(=O)N[C@@H](C)C(=O)N[C@@H](CCC(=O)O)C(=O)N[C@@H](CO)C(=O)N[C@@H](Cc1ccccc1)C(N)=O` [GLFDIIKAIAESF], the MIC was above 360 µM in test [1]; 45 µM (≈ 64 µg/mL) in test [2]; at least 45 µM in test [3]; above 360 µM in test [4]; 89.9 µM (≈ 128 µg/mL) in test [5].
In the case of `CC(C)C[C@H](NC(=O)CNC(=O)CNC(=O)CNC(=O)[C@H](C)NC(=O)[C@H](CC(C)C)NC(=O)[C@H](CC(N)=O)NC(=O)CNC(=O)[C@H](CC(C)C)NC(=O)[C@H](CC(C)C)NC(=O)CNC(=O)[C@@H](NC(=O)[C@@H](NC(=O)[C@H](CO)NC(=O)[C@H](CC(N)=O)NC(=O)[C@H](CC(C)C)NC(=O)[C@H](CC(C)C)NC(=O)CNC(=O)[C@H](CO)NC(=O)[C@@H](NC(=O)[C@H](CC(C)C)NC(=O)CN)C(C)C)C(C)C)[C@@H](C)O)C(=O)O` [GLVSGLLNSVTGLLGNLAGGGL], the minimum inhibitory concentration (MIC) was above 100 µM in test [9], at least 100 µM in test [10] and above 100 µM in [5].
Take `CC[C@H](C)[C@H](NC(=O)[C@H](C)NC(=O)[C@@H](NC(=O)[C@@H](NC(=O)[C@@H](NC(=O)CNC(=O)[C@H](CCCCN)NC(=O)[C@H](CCCCN)NC(=O)CNC(=O)[C@@H](N)CCCCN)C(C)C)[C@@H](C)CC)[C@@H](C)CC)C(=O)N[C@@H](CC(C)C)C(=O)N[C@@H](CC(C)C)C(=O)N[C@@H](Cc1ccccc1)C(=O)N[C@@H](C)C(=O)N[C@H](C(=O)N[C@H](C(=O)N[C@@H](Cc1ccc(O)cc1)C(=O)N[C@@H](CCCCN)C(=O)N[C@@H](CCCCN)C(=O)N[C@@H](CCCCN)C(N)=O)[C@@H](C)CC)[C@@H](C)CC` [KGKKGVIIAILLFAIIYKKK]: the MIC in test [11] was at least 128 µM; in [1] it was 128 µM (≈ 287 µg/mL); in [5], 128 µM (≈ 287 µg/mL); in [12], 128 µM (≈ 287 µg/mL).
Consider `CC[C@H](C)[C@H](NC(=O)[C@H](C)NC(=O)[C@H](CCCCN)NC(=O)[C@@H](NC(=O)[C@H](CC(C)C)NC(=O)[C@H](C)NC(=O)CNC(=O)[C@@H](NC(=O)[C@H](CCCCN)NC(=O)[C@H](Cc1ccccc1)NC(=O)[C@H](Cc1ccc(O)cc1)NC(=O)[C@H](CCCCN)NC(=O)[C@H](CCCCN)NC(=O)[C@H](CC(C)C)NC(=O)[C@@H](NC(=O)CNC(=O)[C@@H](NC(=O)[C@@H](N)CCCCN)[C@@H](C)CC)C(C)C)[C@@H](C)CC)[C@@H](C)CC)C(=O)N[C@H](C(=O)N[C@@H](CCCCN)C(N)=O)[C@@H](C)CC` [KIGVLKKYFKIGALIKAIIK], for which the MIC turned out to be 1 µM (≈ 2.24 µg/mL) in test [11], 8 µM (≈ 18 µg/mL) in test [1], 8 µM (≈ 18 µg/mL) in test [5] and 2 µM (≈ 4.49 µg/mL) in test [12].
With `CC[C@H](C)[C@H](NC(=O)[C@H](Cc1ccc(O)cc1)NC(=O)[C@H](CC(N)=O)NC(=O)[C@H](CC(N)=O)NC(=O)[C@H](Cc1ccccc1)NC(=O)[C@@H](N)CC(C)C)C(=O)N[C@H](C(=O)N[C@@H](C)C(=O)N[C@@H](C)C(=O)N[C@@H](CC(C)C)C(=O)N[C@@H](CCCCN)C(=O)N[C@@H](CC(C)C)C(=O)N[C@@H](CC(C)C)C(=O)N[C@@H](CCC(=O)O)C(=O)N[C@@H](CCCCN)C(=O)N[C@@H](CC(C)C)C(=O)N[C@@H](Cc1ccc(O)cc1)C(=O)N[C@@H](CCCCN)C(=O)N[C@H](C(N)=O)C(C)C)[C@@H](C)O` [LFNNYITAALKLLEKLYKV], the MIC in test [1] is 4 µM (≈ 9.02 µg/mL); in test [9] it was 5.33 µM (≈ 12 µg/mL); in test [13] it was at least 32 µM; in test [14] it was 8 µM (≈ 18 µg/mL).
Regarding `NC(=O)[C@H](CCCN=C(N)N)NC(=O)[C@H](CCCN=C(N)N)NC(=O)[C@H](Cc1c[nH]c2ccccc12)NC(=O)[C@H](CCCN=C(N)N)NC(=O)[C@H](CCCN=C(N)N)NC(=O)[C@H](Cc1c[nH]c2ccccc12)NC(=O)[C@H](Cc1c[nH]c2ccccc12)NC(=O)[C@H](CCCN=C(N)N)NC(=O)[C@@H](N)CCCN=C(N)N` [RRWWRRWRR], the MIC in test [15] is at least 100 µM; against Escherichia coli ML-35p it was 25 µM (≈ 37.8 µg/mL).
Regarding `CC[C@H](C)[C@H](NC(=O)[C@H](CC(C)C)NC(=O)[C@H](CC(=O)O)NC(=O)[C@H](CO)NC(=O)[C@H](CCCN=C(N)N)NC(=O)[C@@H](N)CO)C(=O)N[C@H](C(=O)N[C@@H](Cc1cnc[nH]1)C(=O)N[C@@H](CCC(N)=O)C(=O)N[C@@H](CCCN=C(N)N)C(=O)N[C@@H](CC(C)C)C(=O)N[C@@H](Cc1ccccc1)C(N)=O)C(C)C` [SRSDLIVHQRLF], the MIC against Staphylococcus aureus was above 272 µM; in test [13] it was at least 272 µM; in [10] it was at least 272 µM; in the test with Escherichia coli, above 272 µM; in [16], at least 272 µM.
In the case of `CC[C@H](C)[C@H](NC(=O)[C@H](CCCCN)NC(=O)[C@H](C)NC(=O)[C@H](C)NC(=O)[C@H](C)NC(=O)[C@H](CCCCN)NC(=O)[C@H](C)NC(=O)[C@H](C)NC(=O)[C@H](C)NC(=O)[C@H](CCCCN)NC(=O)[C@@H](NC(=O)[C@@H](N)Cc1c[nH]c2ccccc12)[C@@H](C)CC)C(=O)N[C@@H](Cc1c[nH]c2ccccc12)C(N)=O` [WIKAAAKAAAKIW], the MIC in the test on Escherichia coli UB1005 was 8 µM (≈ 11.4 µg/mL); in test [17], 8 µM (≈ 11.4 µg/mL); in [9], 32 µM (≈ 45.7 µg/mL); in test [18], 32 µM (≈ 45.7 µg/mL); in test [19], 8 µM (≈ 11.4 µg/mL); in test [20], 32 µM (≈ 45.7 µg/mL). In addition, the results for the MIC in test [21], in test [5] and in [12] were 32 µM (≈ 45.7 µg/mL), 8 µM (≈ 11.4 µg/mL) and 32 µM (≈ 45.7 µg/mL), respectively.

For orientation: MIC means the lowest concentration that inhibits growth of the organism.
